In PMC5190074, “BET inhibition as a new strategy for the treatment of gastric cancer” (Oncotarget, 2016):

How the values were obtained:
[1] = biological target: T1, BRD1 (Homo sapiens, UniProt O95696); assay: biochemical; parameters: thermal shift assay (real-time PCR machine), melting temperature shift of recombinant bromodomains at 2 uM protein
T1 construct: bromodomain
Description: (§1) The recombinant bromodomains at 2 μM were mixed with 10 μM inhibitors. The assays and data evaluation for melting temperatures were performed using a Real-Time PCR Mx3005p machine (Stratagene) and the protocols previously described. Experiments profiling the final compound (PNZ5) were performed in quadruplicates. […] Since its discovery in our own labs, similar inhibitors have also been disclosed by researchers at Boehringer Ingelheim [reference: patent, WO 2014/154760 [31]]. The inhibitor contains two possible acetyl-lysine mimetic moieties. In order to obtain molecular insights on the interaction of the developed inhibitor, the crystal structure of the first bromodomain of BRD4 in complex with PNZ5 was solved at 1.85 Å (Figure 2C and Supplementary Table 4, 5FBX.pdb). The inhibitor, coordinating residues and water molecules were well defined by the electron density. The dimethylisoxazole moiety mimicked the acetyl lysine side chain and formed two canonical hydrogen-bond interactions with Asn140 and water mediated hydrogen-bond with Tyr 97 (Figure 2C). The common network of waters within the binding site was also conserved in the BRD4(1)-PNZ5 complex. The compound was further stabilized by lipophilic interactions with residues forming the binding site Leu92, Leu94, Ile146. The [compound left out] substituent was well accommodated next to the WPF shelf, as well as the N1-methyl substituent that formed hydrophobic interactions with Trp81. The carbonyl on the isoindolinone established a water-mediated hydrogen bond with Lys91.

[2] = biological target: T2, BRD3(2) (Homo sapiens, UniProt Q15059); assay: biochemical; parameters: thermal shift assay (real-time PCR machine), melting temperature shift of recombinant bromodomains at 2 uM protein
T2 construct: bromodomain 2
Description: as §1

[3] = biological target: T3, EP300 (Homo sapiens, UniProt Q09472); assay: biochemical; parameters: thermal shift assay (real-time PCR machine), melting temperature shift of recombinant bromodomains at 2 uM protein
T3 construct: bromodomain
Description: as §1

[4] = biological target: T4, BAZ2A (Homo sapiens, UniProt Q9UIF9); assay: biochemical; parameters: thermal shift assay (real-time PCR machine), melting temperature shift of recombinant bromodomains at 2 uM protein
T4 construct: bromodomain
Description: as §1

[5] = biological target: T5, MLL (Homo sapiens, UniProt Q03164); assay: biochemical; parameters: thermal shift assay (real-time PCR machine), melting temperature shift of recombinant bromodomains at 2 uM protein
T5 construct: gene KMT2A; bromodomain
T5 sequence (Q03164 whole entry): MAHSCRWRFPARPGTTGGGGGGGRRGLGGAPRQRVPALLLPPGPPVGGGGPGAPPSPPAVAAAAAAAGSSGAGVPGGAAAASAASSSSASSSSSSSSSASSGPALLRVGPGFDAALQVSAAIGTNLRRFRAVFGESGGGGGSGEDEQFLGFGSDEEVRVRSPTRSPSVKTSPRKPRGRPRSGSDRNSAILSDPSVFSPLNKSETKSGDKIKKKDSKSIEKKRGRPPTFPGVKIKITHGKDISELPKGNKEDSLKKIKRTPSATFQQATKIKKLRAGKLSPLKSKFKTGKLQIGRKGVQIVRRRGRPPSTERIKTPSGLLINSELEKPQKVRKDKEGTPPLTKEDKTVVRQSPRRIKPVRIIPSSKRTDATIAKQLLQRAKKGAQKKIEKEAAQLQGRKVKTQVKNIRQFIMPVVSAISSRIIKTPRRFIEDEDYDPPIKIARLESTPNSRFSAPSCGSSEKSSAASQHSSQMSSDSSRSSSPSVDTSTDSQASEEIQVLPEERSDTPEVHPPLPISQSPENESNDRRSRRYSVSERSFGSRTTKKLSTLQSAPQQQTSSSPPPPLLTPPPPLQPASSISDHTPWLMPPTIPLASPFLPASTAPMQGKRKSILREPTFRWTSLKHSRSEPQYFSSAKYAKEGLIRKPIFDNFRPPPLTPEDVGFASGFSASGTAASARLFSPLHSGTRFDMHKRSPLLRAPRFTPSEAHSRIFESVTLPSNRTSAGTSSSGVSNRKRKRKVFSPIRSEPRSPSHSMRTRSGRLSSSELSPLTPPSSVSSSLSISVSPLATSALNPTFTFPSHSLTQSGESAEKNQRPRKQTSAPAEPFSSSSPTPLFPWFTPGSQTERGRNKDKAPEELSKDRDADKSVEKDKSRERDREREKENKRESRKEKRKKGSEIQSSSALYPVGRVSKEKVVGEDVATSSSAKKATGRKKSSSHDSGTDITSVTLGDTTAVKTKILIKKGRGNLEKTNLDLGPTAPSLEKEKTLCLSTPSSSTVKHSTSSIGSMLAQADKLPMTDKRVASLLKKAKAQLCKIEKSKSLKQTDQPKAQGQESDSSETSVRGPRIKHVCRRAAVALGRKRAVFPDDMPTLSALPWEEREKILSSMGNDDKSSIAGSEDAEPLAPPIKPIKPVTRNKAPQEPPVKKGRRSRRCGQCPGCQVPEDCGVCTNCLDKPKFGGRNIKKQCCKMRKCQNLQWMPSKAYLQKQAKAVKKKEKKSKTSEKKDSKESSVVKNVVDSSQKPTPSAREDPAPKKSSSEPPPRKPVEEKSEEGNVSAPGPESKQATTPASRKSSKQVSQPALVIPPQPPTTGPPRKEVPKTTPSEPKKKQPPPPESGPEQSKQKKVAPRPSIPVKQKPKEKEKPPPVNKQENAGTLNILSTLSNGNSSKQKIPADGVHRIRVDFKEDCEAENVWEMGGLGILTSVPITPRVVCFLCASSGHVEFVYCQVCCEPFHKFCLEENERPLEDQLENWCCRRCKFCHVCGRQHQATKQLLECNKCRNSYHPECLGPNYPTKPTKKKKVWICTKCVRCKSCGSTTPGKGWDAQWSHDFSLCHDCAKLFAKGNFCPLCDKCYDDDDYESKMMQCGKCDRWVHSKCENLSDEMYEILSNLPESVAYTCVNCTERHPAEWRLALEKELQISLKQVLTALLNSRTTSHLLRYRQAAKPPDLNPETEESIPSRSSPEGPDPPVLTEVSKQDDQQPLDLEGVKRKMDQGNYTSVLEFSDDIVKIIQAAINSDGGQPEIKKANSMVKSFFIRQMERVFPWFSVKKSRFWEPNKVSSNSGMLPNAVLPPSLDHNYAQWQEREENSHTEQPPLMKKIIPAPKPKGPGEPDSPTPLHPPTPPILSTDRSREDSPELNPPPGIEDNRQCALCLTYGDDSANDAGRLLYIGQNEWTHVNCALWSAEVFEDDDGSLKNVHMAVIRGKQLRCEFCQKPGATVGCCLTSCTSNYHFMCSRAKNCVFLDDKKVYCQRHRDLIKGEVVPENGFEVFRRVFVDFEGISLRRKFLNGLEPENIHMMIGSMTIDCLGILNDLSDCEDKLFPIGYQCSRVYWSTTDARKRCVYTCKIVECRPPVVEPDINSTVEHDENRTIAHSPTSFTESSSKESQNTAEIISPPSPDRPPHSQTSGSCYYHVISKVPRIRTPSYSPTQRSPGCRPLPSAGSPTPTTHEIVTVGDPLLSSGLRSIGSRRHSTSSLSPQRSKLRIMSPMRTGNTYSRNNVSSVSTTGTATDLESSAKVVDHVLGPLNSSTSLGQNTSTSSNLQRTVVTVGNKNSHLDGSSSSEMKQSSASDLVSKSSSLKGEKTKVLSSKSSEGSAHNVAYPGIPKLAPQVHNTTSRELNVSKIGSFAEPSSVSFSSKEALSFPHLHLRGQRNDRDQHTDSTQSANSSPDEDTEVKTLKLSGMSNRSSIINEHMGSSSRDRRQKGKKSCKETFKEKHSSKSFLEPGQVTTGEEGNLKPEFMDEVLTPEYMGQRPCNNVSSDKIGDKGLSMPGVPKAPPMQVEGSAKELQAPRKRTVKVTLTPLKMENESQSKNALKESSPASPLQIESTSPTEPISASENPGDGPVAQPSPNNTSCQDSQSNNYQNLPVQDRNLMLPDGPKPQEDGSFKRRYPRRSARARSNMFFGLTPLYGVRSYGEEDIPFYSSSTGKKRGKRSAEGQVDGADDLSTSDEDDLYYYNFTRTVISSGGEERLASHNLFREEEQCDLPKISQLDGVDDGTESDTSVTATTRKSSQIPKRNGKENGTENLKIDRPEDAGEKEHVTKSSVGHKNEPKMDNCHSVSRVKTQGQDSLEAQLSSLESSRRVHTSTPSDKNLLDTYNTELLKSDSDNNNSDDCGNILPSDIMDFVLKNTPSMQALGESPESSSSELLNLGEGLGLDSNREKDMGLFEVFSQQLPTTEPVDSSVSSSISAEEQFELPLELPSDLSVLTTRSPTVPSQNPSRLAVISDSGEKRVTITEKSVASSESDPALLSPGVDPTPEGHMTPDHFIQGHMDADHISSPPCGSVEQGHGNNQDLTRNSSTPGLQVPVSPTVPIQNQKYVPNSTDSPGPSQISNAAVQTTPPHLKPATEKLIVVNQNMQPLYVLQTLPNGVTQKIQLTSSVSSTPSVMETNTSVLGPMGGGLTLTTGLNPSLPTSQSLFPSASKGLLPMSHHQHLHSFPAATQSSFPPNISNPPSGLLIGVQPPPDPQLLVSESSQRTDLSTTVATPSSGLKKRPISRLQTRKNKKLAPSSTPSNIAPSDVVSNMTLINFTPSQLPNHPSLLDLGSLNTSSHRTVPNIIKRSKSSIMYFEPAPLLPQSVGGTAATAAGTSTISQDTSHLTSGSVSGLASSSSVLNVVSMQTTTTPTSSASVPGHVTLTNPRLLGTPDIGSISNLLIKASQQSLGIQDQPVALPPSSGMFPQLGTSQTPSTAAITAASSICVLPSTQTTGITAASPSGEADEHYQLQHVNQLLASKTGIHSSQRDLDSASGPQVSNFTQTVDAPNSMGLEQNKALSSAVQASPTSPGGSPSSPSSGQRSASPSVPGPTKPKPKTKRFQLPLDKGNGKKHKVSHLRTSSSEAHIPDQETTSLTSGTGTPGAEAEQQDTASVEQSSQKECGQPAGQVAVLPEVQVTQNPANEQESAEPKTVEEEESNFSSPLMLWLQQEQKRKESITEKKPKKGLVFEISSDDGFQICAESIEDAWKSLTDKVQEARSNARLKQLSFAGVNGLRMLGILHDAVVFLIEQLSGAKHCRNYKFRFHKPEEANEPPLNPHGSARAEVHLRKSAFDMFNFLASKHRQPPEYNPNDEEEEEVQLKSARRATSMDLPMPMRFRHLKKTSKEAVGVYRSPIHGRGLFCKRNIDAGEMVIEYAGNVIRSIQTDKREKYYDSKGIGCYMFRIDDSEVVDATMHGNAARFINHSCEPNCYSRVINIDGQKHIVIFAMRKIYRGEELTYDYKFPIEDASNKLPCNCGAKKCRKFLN
Description: as §1

[6] = biological target: T6, BAZ1B (Homo sapiens, UniProt Q9UIG0); assay: biochemical; parameters: thermal shift assay (real-time PCR machine), melting temperature shift of recombinant bromodomains at 2 uM protein
T6 construct: bromodomain
Description: as §1

[7] = biological target: T7, BRDT(2) (Homo sapiens, UniProt Q58F21); assay: biochemical; parameters: thermal shift assay (real-time PCR machine), melting temperature shift of recombinant bromodomains at 2 uM protein
T7 construct: bromodomain 2
Description: as §1

[8] = biological target: T8, TAF1L(2) (Homo sapiens, UniProt Q8IZX4); assay: biochemical; parameters: thermal shift assay (real-time PCR machine), melting temperature shift of recombinant bromodomains at 2 uM protein
T8 construct: bromodomain 2
Description: as §1

[9] = biological target: T9, TAF1(1) (Homo sapiens, UniProt P21675); assay: biochemical; parameters: thermal shift assay (real-time PCR machine), melting temperature shift of recombinant bromodomains at 2 uM protein
T9 construct: bromodomain 1
Description: as §1

[10] = biological target: T10, FALZ (Homo sapiens, UniProt Q12830); assay: biochemical; parameters: thermal shift assay (real-time PCR machine), melting temperature shift of recombinant bromodomains at 2 uM protein
T10 construct: gene BPTF; bromodomain
Description: as §1

[11] = biological target: T11, PB1(4) (Homo sapiens, UniProt Q86U86); assay: biochemical; parameters: thermal shift assay (real-time PCR machine), melting temperature shift of recombinant bromodomains at 2 uM protein
T11 construct: gene PBRM1; bromodomain 4
Description: as §1

[12] = biological target: T12, PCAF (Homo sapiens, UniProt Q92831); assay: biochemical; parameters: thermal shift assay (real-time PCR machine), melting temperature shift of recombinant bromodomains at 2 uM protein
T12 construct: gene KAT2B; bromodomain
Description: as §1

[13] = biological target: T13, TAF1(2) (Homo sapiens, UniProt P21675); assay: biochemical; parameters: thermal shift assay (real-time PCR machine), melting temperature shift of recombinant bromodomains at 2 uM protein
T13 construct: bromodomain 2
Description: as §1

[14] = biological target: T14, TIF1-bromo (Homo sapiens, UniProt O15164); assay: biochemical; parameters: thermal shift assay (real-time PCR machine), melting temperature shift of recombinant bromodomains at 2 uM protein
T14 construct: gene TRIM24; bromodomain
Description: as §1

[15] = biological target: T15, BRD4(1), first bromodomain of BRD4 (Homo sapiens, UniProt O60885); assay: ITC; co-crystal structure at […] Å; type: binding
T15 construct: first bromodomain; BRD4_HUMAN O60884-1 fragment 44-168 (crystallography)

[16] = biological target: T15, BRD4(1), first bromodomain of BRD4; assay: biochemical; parameters: thermal shift assay, SAR of isoxazole compounds against BRD4(1); settings: read-out: ΔTm Shift (oC)
Description: The recombinant bromodomains at 2 μM were mixed with 10 μM inhibitors. The assays and data evaluation for melting temperatures were performed using a Real-Time PCR Mx3005p machine (Stratagene) and the protocols previously described. Experiments profiling the final compound (PNZ5) were performed in quadruplicates. Isoxazoles have been explored previously as BET bromodomain inhibitors. We have developed PNZ5, a new isoxazole-based inhibitor originating from the lead compound S1 (Figure 1). PNZ5 was developed as the result of a structure-based lead optimisation program. Dihydroindene S1 was identified as a ligand against BRD4(1) (pIC50 5.9). Investigation of the co-crystal structure of S1 with BRD4(1) [PDB ID 4GPJ] identified a number of positions for potential optimisation: addition of a carbonyl group at C-3 was envisaged to benefit from hydrogen-bonds (H-bonds) to a network of conserved water molecules; replacement of C-2 with a nitrogen would minimise interactions in the narrow ZA channel of BRD4(1) and N-substitution could provide further binding interactions with the protein; and alternative substitution of the hydroxyl at C-1 would provide a handle for further optimisation. […] The three best compounds, S3, S5 and S7, were destined to be separated into their component enantiomers for further evaluation (Supplementary Table 2). […]

T1 sequence (O95696 whole entry): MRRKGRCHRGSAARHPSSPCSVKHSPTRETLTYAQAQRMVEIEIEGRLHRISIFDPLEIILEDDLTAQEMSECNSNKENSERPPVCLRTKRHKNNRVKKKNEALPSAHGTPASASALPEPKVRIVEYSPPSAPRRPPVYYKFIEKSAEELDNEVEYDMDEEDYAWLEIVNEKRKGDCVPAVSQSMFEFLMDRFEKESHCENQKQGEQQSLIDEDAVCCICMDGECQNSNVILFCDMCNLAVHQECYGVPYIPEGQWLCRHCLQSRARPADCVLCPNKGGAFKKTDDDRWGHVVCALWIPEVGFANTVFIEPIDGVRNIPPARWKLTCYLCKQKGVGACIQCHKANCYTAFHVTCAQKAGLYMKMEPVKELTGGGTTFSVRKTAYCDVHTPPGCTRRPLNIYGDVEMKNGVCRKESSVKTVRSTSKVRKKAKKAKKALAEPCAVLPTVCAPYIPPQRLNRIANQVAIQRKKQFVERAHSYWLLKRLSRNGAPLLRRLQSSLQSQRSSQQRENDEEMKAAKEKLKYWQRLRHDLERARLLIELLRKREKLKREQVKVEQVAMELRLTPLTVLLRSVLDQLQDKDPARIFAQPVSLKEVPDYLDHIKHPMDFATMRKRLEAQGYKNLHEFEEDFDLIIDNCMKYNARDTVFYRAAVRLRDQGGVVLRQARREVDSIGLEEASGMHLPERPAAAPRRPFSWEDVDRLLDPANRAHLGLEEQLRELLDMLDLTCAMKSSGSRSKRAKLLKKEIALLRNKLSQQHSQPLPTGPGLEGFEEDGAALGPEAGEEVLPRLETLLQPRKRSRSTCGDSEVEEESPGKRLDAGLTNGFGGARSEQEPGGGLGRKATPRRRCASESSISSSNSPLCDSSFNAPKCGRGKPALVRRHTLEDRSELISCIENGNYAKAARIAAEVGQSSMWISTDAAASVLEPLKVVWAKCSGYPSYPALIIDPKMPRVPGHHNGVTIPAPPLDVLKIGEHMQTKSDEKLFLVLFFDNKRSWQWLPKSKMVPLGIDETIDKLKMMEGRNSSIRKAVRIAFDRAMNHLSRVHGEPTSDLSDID

Cc1noc(C)c1-c1ccc2c(c1)[C@H](c1ccccc1)N(C)C2=O [PNZ5]
ΔTm at 10 µM [1]: 1.03 °C
ΔTm at 10 µM [2]: 9.54 °C
ΔTm at 10 µM [3]: 2.49 °C
ΔTm at 10 µM [4]: 0.32 °C
ΔTm at 10 µM [5]: 0.49 °C
ΔTm at 10 µM [6]: 1.67 °C
ΔTm at 10 µM [7]: 8.81 °C
ΔTm at 10 µM [8]: 0.51 °C
ΔTm at 10 µM [9]: 0.09 °C
ΔTm at 10 µM [10]: 0.22 °C
ΔTm at 10 µM [11]: 0.36 °C
ΔTm at 10 µM [12]: 0.45 °C
ΔTm at 10 µM [13]: 0.19 °C
ΔTm at 10 µM [14]: 0.86 °C
Kd [15]: 5.43 nM
ΔTm at 10 µM [16]: 11.4 °C
